Where a SMILES comes first, the peptide text is derived from it. The star is where a group is joined. Cbz = O=C(OCc1ccccc1)*; CH2F = FC*
Legend:
[1] = tested on: Lymph node T cells from BBDP rats; test: Caspase inhibition, sub-diploid DNA; assay type: cell-based, rat; conditions: 17 hr of culture, varying concentrations
Description: The percentage of T cells with sub-diploid DNA was measured as described (I. Nicoletti, G. Migliorati, M. C. Pagliacci, F. Grignani, C. Riccardi, J. Immunol. Methods 139, 271-279 (1991)). Briefly, freshly isolated or in vitro stimulated lymph node T cells were washed twice with PBS and centrifuged at 1500 rpm for 5 min. Pellets (2×10^6) were resuspended in 200 μl of PBS, fixed in 70% cold ethanol, and stored at 4° C. until used. At the time of analysis, cells were washed twice with PBS and incubated at 25° C. for 40 min in 500 μl of PBS containing 0.1% Triton X-100 and 50 μg of RNase (Boehringer Mannheim, Indianapolis, Ind.). Propidium iodide (10 μg, Sigma, St. Louis, Mo.) was added, and the suspension was incubated in the dark for 15 min. DNA content was determined by flow microfluorometry using a FACStarR® instrument (Becton Dickinson, San Jose, Calif.). Lymphoid cells were identified electronically by their forward and side light-scatter characteristics. For each analysis, a minimum of 10,000 events was analyzed.
Lymph node T cells from BBDP rats were prepared as described above and cultured in AIM-V medium in the presence or absence of varying concentrations of the caspase inhibitors Z-VAD-FMK, Z-VDVAD, Z-DEVD, D-IETD, and Z-LEHD obtained from R&D Systems (Minneapolis, Minn.). […] Cells were then harvested, and the percentage of cells with sub-diploid DNA was determined as above.

Ian4−/− BBDP T cells = test: Mitochondrial membrane potential (Δψm) by MitoLight flow microfluorometry; assay type: cell-based, rat; conditions: control incubation with uncoupler, 50 μM, 15 minutes, 37° C.; positive control for dissipation of Δψm
Description: Flat bottom 6-well culture plates (Falcon, Franklin Lakes, N.J.) were incubated with 10 μg/well anti-CD3 mAb, 10 μg/well anti-CD28 mAb, or both, in PBS at 4° C. After overnight incubation, plates were rinsed three times with PBS. Nylon wool-purified T cells were cultured in antibody-coated wells at 6×10^6 cells/well in 3 ml complete AIM-V media (AIM-V plus 55 μM 2-mercaptoethanol, Sigma) for 17, 40, or 68 hr in a humidified incubator at 37° C. with 5% CO2. Un-stimulated cells were incubated in complete AIM-V alone. Mitochondrial membrane potential (Δψm) of thymocytes and T cells was measured by two- or three-color flow microfluorometry using MitoLight™ (Chemicon, Temecula, Calif.) alone or in combination with biotin-conjugated anti-αβTCR mAb. Mitolight™ was employed according to the manufacturer's instructions. It is a lipophilic cation with a cellular distribution similar to that of JC-1. […] When the concentration of JC-1 reaches a threshold, it forms aggregate, causing a shift in its absorbed and emitted fluorescence (S. T. Smiley et al., Proc. Natl. Acad. Sci. U.S.A 88, 3671-3675 (1991)). […] For each experiment control and BBDP T cells were analyzed for both red and green fluorescence after Mitolight™ labeling. […] For each analysis, a minimum of 10,000 events was analyzed.

SMILES	apoptosis of Ian4−/− T cells (percentage of cells with sub-diploid DNA) [1]	percentage of T cells with high Δψm (Ian4−/− BBDP T cells) [%]
COC(=O)C[C@H](NC(=O)[C@H](C)NC(=O)[C@@H](NC(=O)OCc1ccccc1)C(C)C)C(=O)CF [Z-VAD-frnk] (Cbz-Val-Ala-Asp(OMe)-CH2F)	prevented apoptosis	
N#CC(C#N)=NNc1cccc(Cl)c1 [CCCP, carbonyl cyanide m-chlorophenyl-hydrazone]		~4

— US20050123571A1, “Modulation of apoptosis” (priority 2003, published 2005)
